Like-named read-outs stand apart in the source and are kept apart here.

Data set [1] addresses T1, hCA II (Homo sapiens, UniProt P00918).
T1 construct: made in house
Briefly: stopped flow CO2 hydrase assay, hCA II. It is filed as biochemical. The conditions noted are these: 15 min incubation. The method, then:
(§1) An applied photophysics stopped-flow instrument has been used for assaying the CA catalysed CO2 hydration activity.[32]
(§2) Phenol red (at a concentration of 0.2 mM) was used as indicator, working at the absorbance maximum of 557 nm, with 20 mM Hepes (pH 7.5), and 20 mM Na2SO4 (for maintaining constant the ionic strength), following the initial rates of the CA-catalysed CO2 hydration reaction for a period of 10 − 100 s. The CO2 concentrations ranged from 1.7 to 17 mM for the determination of the kinetic parameters and inhibition constants. […] The uncatalysed rates were determined in the same manner and subtracted from the total observed rates. Stock solutions of inhibitor (0.1 mM) were prepared in distilled – deionised water, and dilutions up to 0.01 nM were done thereafter with the assay buffer. Inhibitor and enzyme solutions were preincubated together for 15 min at room temperature prior to assay in order to allow for the formation of the E – I complex. […] The inhibition constants were obtained by nonlinear least-squares methods using PRISM 3 and the Cheng – Prusoff equation, as reported earlier[15]^,[33–37]^, and represent the mean from at least three different determinations. All CA isoforms were recombinant ones obtained in-house as reported earlier[12]^,[18]^,[38–45].

The target in data set [2] is T2, hCA XII (Homo sapiens, UniProt O43570).
T2 construct: made in house
T2 sequence (O43570 25-354): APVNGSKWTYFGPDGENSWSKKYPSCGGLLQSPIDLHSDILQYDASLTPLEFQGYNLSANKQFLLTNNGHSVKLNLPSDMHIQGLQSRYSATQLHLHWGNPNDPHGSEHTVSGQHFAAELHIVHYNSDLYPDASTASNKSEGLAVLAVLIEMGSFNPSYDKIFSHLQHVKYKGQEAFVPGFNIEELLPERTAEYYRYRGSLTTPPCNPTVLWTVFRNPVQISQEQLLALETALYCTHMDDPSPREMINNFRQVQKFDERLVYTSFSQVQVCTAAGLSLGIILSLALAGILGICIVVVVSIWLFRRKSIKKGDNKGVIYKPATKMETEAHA
Briefly: stopped flow CO2 hydrase assay, hCA XII. The conditions noted are these: 15 min incubation; for Ki: recombinant enzyme, mean from three assays, errors ± 5–10%. It is filed as biochemical. On the procedure:
as §1, §2

Data set [3] deals with T3, hCA IX (Homo sapiens, UniProt Q16790).
T3 construct: made in house
Briefly: stopped flow CO2 hydrase assay, hCA IX. It is filed as biochemical. The conditions noted are these: recombinant enzyme, 15 min incubation, mean from three assays, errors ± 5–10%. On the procedure: as §1, §2

Data set [4] has as its target T4, hCA I (Homo sapiens, UniProt P00915).
T4 construct: made in house
Briefly: stopped flow CO2 hydrase assay, hCA I. Format: biochemical. The conditions noted are these: 15 min incubation; for Ki: recombinant enzyme, mean from three assays, errors ± 5–10%. The method, then: as §1, §2

[5] abbreviates: recombinant enzyme, mean from three assays, errors ± 5–10%, read-out: KI (nM) hCA II.

T4 sequence (P00915 whole entry): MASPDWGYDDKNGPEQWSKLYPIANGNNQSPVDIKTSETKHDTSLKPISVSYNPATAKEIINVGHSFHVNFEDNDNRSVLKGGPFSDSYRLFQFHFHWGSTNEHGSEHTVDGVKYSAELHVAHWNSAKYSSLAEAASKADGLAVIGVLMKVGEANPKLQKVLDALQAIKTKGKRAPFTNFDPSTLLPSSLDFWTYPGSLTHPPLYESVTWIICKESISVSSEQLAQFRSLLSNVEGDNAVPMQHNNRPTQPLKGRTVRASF

With `O=S1(=O)N=Cc2ccc(-c3ccc(F)cc3)cc2O1` [5g, 7-(4-Fluorophenyl)-1,2,3-benzoxathiazine 2,2-dioxide], the melting point is 164 to 165 °C. In data set [1] (setting [5]), the inhibitory constant (Ki) is 2.1 nM. For the same molecule, in data set [2], the Ki worked out at 8.2 nM. Besides, the Ki in data set [3] was 69.8 nM. The Ki in data set [4] came to 15200 nM.

Regarding `O=S1(=O)N=Cc2c(cccc2-c2ccc(F)cc2)O1` [5b, 5-(4-Fluorophenyl)-1,2,3-benzoxathiazine 2,2-dioxide], the inhibition constant (Ki) in data set [1] (setting [5]) was 14800 nM; in data set [2], 7460 nM; in data set [3], 4140 nM; in data set [4] it was greater than 100000 nM.

As to `COc1ccc2c(c1)OS(=O)(=O)N=C2` [2f, 7-Methoxy-1,2,3-benzoxathiazine 2,2-dioxide], the Ki in data set [1] (setting [5]) came to 55.2 nM; in data set [2], 83.1 nM; in data set [3], 39.7 nM; in data set [4] it was 987 nM.

As for `COc1ccc2c(c1)C=NS(=O)(=O)O2` [2b, 6-Methoxy-1,2,3-benzoxathiazine 2,2-dioxide], the inhibition constant (Ki) was 168 nM in data set [1] (setting [5]), 75.1 nM in data set [2], 62.8 nM in data set [3] and greater than 100000 nM in data set [4]. Besides, the “inhibition of hCA I in words” value in data set [4] is given as “did not inhibit”.

On to `Cc1ccc2c(c1)C=NS(=O)(=O)O2` [2a, 6-Methyl-1,2,3-benzoxathiazine 2,2-dioxide], for which the Ki in data set [1] (setting [5]) amounted to 116 nM; in data set [2], 98.2 nM; in data set [3], 72 nM; in data set [4] it was 25700 nM.

Molecule `CCOC(=O)c1ccc(-c2ccc3c(c2)OS(=O)(=O)N=C3)cc1` [5i, Ethyl 4-(2,2-dioxido-1,2,3-benzoxathiazin-7-yl)benzoate] gave a melting point of 204 to 205 °C. For the same molecule, the Ki in data set [1] (setting [5]) stood at 0.8 nM. The inhibition constant Ki in data set [2] stood at 90.5 nM. Further, the Ki in data set [3] is 38 nM. Further, the Ki in data set [4] worked out at 356 nM.

`O=S1(=O)N=Cc2c(cccc2-c2ccc(Cl)c(Cl)c2)O1` [5d, 5-(3,4-Dichlorophenyl)-1,2,3-benzoxathiazine 2,2-dioxide] returned a melting point of 230 to 231 °C. For the same molecule, the “inhibition of hCA II in words” value in data set [1] is reported as “not inhibited”. Also, in data set [1] (setting [5]), the Ki was greater than 100000 nM. In addition, the inhibitory constant (Ki) in data set [2] came to 45300 nM. For the same molecule, in data set [3], the Ki was greater than 100000 nM. In addition, the inhibition constant (Ki) in data set [4] is greater than 100000 nM.

`COc1ccc(-c2cccc3c2C=NS(=O)(=O)O3)cc1` [5c, 5–(4-Methoxyphenyl)-1,2,3-benzoxathiazine 2,2-dioxide] displayed a melting point of 177 to 178 °C. Moreover, in data set [1] (setting [5]), the inhibitory constant (Ki) came out at 36900 nM. Besides, the Ki in data set [2] came out at 18000 nM. For the same molecule, the Ki in data set [3] worked out at 10900 nM. Also, in data set [4], the Ki is greater than 100000 nM.

In turn, `O=S1(=O)N=Cc2ccc(-c3ccccc3)cc2O1` [5f, 7-Phenyl-1,2,3-benzoxathiazine 2,2-dioxide] returned a melting point of 171 to 172 °C. Further, the inhibition constant Ki in data set [1] (setting [5]) was 7.7 nM. Moreover, the Ki in data set [2] is 78.3 nM. In addition, the inhibition constant Ki in data set [3] was determined as 28.6 nM. The Ki in data set [4] was 5680 nM.

With `O=S1(=O)N=Cc2cc(Br)ccc2O1` [2d, 6-Bromo-1,2,3-benzoxathiazine 2,2-dioxide], the inhibitory constant (Ki) in data set [1] (rounded, read-out: Ki hCA II) was 8300 nM; in data set [1] (setting [5]), 8320 nM; in data set [2] it was 186 nM; in data set [3] it was 27.4 nM; in data set [4], greater than 100000 nM. Besides, the “inhibition of hCA I in words” value in data set [4] is “did not inhibit”.

For the molecule `O=S1(=O)N=Cc2ccc(F)cc2O1` [2g, 7-Fluoro-1,2,3-benzoxathiazine 2,2-dioxide], the inhibition constant (Ki) was 86.7 nM in data set [1] (setting [5]), 112 nM in data set [2], 55.4 nM in data set [3] and 448 nM in data set [4].

As to `O=S1(=O)N=Cc2cc(F)ccc2O1` [2c, 6-Fluoro-1,2,3-benzoxathiazine 2,2-dioxide], the Ki in data set [1] (setting [5]) was determined as 71.8 nM; in data set [2], 121 nM; in data set [3], 58.3 nM; in data set [4], 3320 nM.

On to `O=S1(=O)N=Cc2cccc(-c3ccc(Cl)c(Cl)c3)c2O1` [5m, 8-(3,4-Dichlorophenyl)-1,2,3-benzoxathiazine 2,2-dioxide], for which the melting point lay in the range of 165 to 166 °C. Moreover, the Ki in data set [1] (setting [5]) stood at 9.5 nM. In addition, the inhibition constant (Ki) in data set [2] came out at 4.8 nM. Further, the Ki in data set [3] amounted to 40.8 nM. In addition, the Ki in data set [4] is 6710 nM.

For the molecule `O=S1(=O)N=Cc2cccc(F)c2O1` [2j, 8-Fluoro-1,2,3-benzoxathiazine 2,2-dioxide], the Ki was determined as 89.2 nM in data set [1] (setting [5]), 34.7 nM in data set [2], 65.9 nM in data set [3] and 466 nM in data set [4].

Take `COc1ccc(-c2ccc3c(c2)OS(=O)(=O)N=C3)cc1` [5h, 7-(4-Methoxyphenyl)-1,2,3-benzoxathiazine 2,2-dioxide]: the melting point was in the range of 181 to 182 °C. Moreover, the Ki in data set [1] (setting [5]) was 14.3 nM. Further, the Ki in data set [2] was determined as 36.4 nM. For the same molecule, the Ki in data set [3] was 45.2 nM. Also, in data set [4], the Ki was 30300 nM.

For the molecule `COc1ccc(-c2cccc3c2OS(=O)(=O)N=C3)cc1` [5l, 8-(4-Methoxyphenyl)-1,2,3-benzoxathiazine 2,2-dioxide], the melting point lay in the range of 133 to 134 °C. Further, in data set [1] (setting [5]), the inhibition constant Ki stood at 12.3 nM. For the same molecule, the Ki in data set [2] was found to be 7.3 nM. Moreover, the Ki in data set [3] was found to be 62.7 nM. Moreover, in data set [4], the Ki came to 4260 nM.

Consider `O=S1(=O)N=Cc2cccc(Br)c2O1` [2k, 8-Bromo-1,2,3-benzoxathiazine 2,2-dioxide], for which the Ki in data set [1] (setting [5]) amounted to 113 nM; in data set [2], 86.3 nM; in data set [3], 41.8 nM; in data set [4], 788 nM.

As for `CCOC(=O)c1ccc(-c2cccc3c2C=NS(=O)(=O)O3)cc1` [5e, Ethyl 4-(2,2-dioxido-1,2,3-benzoxathiazin-5-yl)benzoate], the “inhibition of hCA II in words” value in data set [1] was “not inhibited”. Further, the Ki in data set [1] (setting [5]), in data set [2], in data set [3] and in data set [4] was greater than 100000 nM in each case. Moreover, the “inhibition of hCA XII in words” value in data set [2] was “did not exhibit any inhibitory properties”.

On to `Cc1ccc2c(c1)OS(=O)(=O)N=C2` [2e, 7-Methyl-1,2,3-benzoxathiazine 2,2-dioxide], for which the Ki stood at 78.9 nM in data set [1] (setting [5]), 58 nM in data set [2], 53.1 nM in data set [3] and 657 nM in data set [4].

Regarding `COc1cccc2c1OS(=O)(=O)N=C2` [2i, 8-Methoxy-1,2,3-benzoxathiazine 2,2-dioxide], the inhibitory constant (Ki) amounted to 39 nM in data set [1] (setting [5]), 63.4 nM in data set [2], 73.6 nM in data set [3] and 1520 nM in data set [4].

Turning to `O=S1(=O)N=Cc2c(cccc2-c2ccccc2)O1` [5a, 5-Phenyl-1,2,3-benzoxathiazine 2,2-dioxide], the melting point was 156 to 157 °C. The Ki in data set [1] (setting [5]) turned out to be 9870 nM. Further, in data set [2], the Ki was 12600 nM. In addition, in data set [3], the Ki amounted to 5250 nM. Also, in data set [4], the Ki is greater than 100000 nM.

Take `O=S1(=O)N=Cc2ccc(Br)cc2O1` [2h, 7-Bromo-1,2,3-benzoxathiazine 2,2-dioxide]: the Ki in data set [1] (setting [5]) is 45.1 nM; in data set [2], 70.1 nM; in data set [3], 22.3 nM; in data set [4], 46500 nM.

The molecule `O=S1(=O)N=Cc2cccc(-c3ccccc3)c2O1` [5j, 8-Phenyl-1,2,3-benzoxathiazine 2,2-dioxide] returned a melting point of 164 to 165 °C. For the same molecule, the inhibition constant (Ki) in data set [1] (setting [5]) worked out at 0.5 nM. Further, in data set [2], the inhibition constant (Ki) came out at 61.8 nM. Also, in data set [3], the Ki is 49.1 nM. Moreover, the Ki in data set [4] was 668 nM.

For the molecule `O=S1(=O)N=Cc2cccc(-c3ccc(F)cc3)c2O1` [5k, 8-(4-Fluorophenyl)-1,2,3-benzoxathiazine 2,2-dioxide], the melting point lay in the range of 123 to 124 °C. Moreover, the Ki in data set [1] (setting [5]) is 5.6 nM. The Ki in data set [2] was 12.4 nM. The inhibition constant (Ki) in data set [3] turned out to be 32.3 nM. For the same molecule, the Ki in data set [4] stood at 1850 nM.
